Test results from paper PMC6022226, “Novel coumarin-6-sulfonamides as apoptotic anti-proliferative agents: synthesis, in vitro biological evaluation, and QSAR studies” (Journal of Enzyme Inhibition and Medicinal Chemistry, 2018).
Read-outs that look alike come from different tables or passages of the source.

What was measured:
Caco-2 colon cancer = assay: In vitro anti-proliferative activity, SRB assay, Caco-2; assay type: cell-based, human
Protocol: (§1) HepG2 liver cancer, MCF-7 breast cancer and Caco-2 cancer cell lines were obtained from the National Cancer Institute (Cairo, Egypt). Caco-2 cells were grown in DMEM while HepG2 and MCF-7 were grown in RPMI-1640. Media were supplemented with 10% heat-inactivated FBS, 50 units/mL of penicillin and 50 µg/mL of streptomycin and maintained at 37 °C in a humidified atmosphere containing 5% CO2. The cells were maintained as a “monolayer culture” by serial subculturing. Cytotoxicity was determined using the sulforhodamine B (SRB) method as previously described by Skehan et al.[50] Exponentially growing cells were collected using 0.25% trypsin-EDTA and seeded in 96-well plates at 1000–2000 cells/well in supplemented DMEM medium. After 24 h, cells were incubated for 72 h with various concentrations of the tested compounds as well as doxorubicin as the reference compound. Following 72 h of treatment, the cells were fixed with 10% trichloroacetic acid for 1 h at 4 °C. Wells were stained for 10 min at room temperature with 0.4% SRB dissolved in 1% acetic acid. The plates were air dried for 24 h, and the dye was solubilized with Tris–HCl for 5 min on a shaker at 1600 rpm. The optical density (OD) of each well was measured spectrophotometrically at 564 nm with an ELISA microplate reader (ChroMate-4300, FL, USA). The IC50 values were calculated according to the equation for Boltzmann sigmoidal concentrationeresponse curve using the nonlinear regression models (GraphPad, Prism Version 5). The results reported are means of at least three separate experiments. Significant differences were analyzed by one-way ANOVA wherein the differences were considered to be significant at p < .05.
(§2) All the newly synthesized target coumarin sulfonamides were evaluated for their in vitro anti-proliferative activity against three human tumor cancer cell lines, HepG2 hepatocellular carcinoma, MCF-7 breast cancer, and Caco-2 colon cancer, using SRB colorimetric assay as described by Skehan et al.^50 Doxorubicin was involved in the experiments as a reference cytotoxic compound.

[1] = system: non-tumorigenic human normal lung fibroblast cell line (WI-38); assay: In vitro cytotoxicity towards normal WI-38 cells; assay type: cell-based; details: for IC50: normal lung fibroblasts; for Selectivity index: WI-38 versus HepG2
MCF-7 breast cancer = assay: In vitro anti-proliferative activity, SRB assay, MCF-7; assay type: cell-based, human; details: mean ± SE of three experiments
Protocol: as §1, §2

Bcl-2 = assay: ELISA immunoassay, Bcl-2 expression level in HepG2 cells; assay type: cell-based, human; details: HepG2 cells treated at IC50 concentration
From the text: (§3) The levels of the apoptotic markers (Bax, caspase-3) and the anti-apoptotic marker (Bcl-2) were examined using ELISA colorimetric kits per the manufacturer’s protocol and referring to reported instructions[51] ^, [52].
(§4) The Bcl-2 proteins family is mainly responsible for synchronizing the mitochondrial apoptotic pathway, and classified into two major classes: anti-apoptotic proteins such as Bcl-2 protein and the counteracting pro-apoptotic proteins including Bax protein. In this study, we examined the impact of coumarins 13a and 15a on the level of the anti-apoptotic Bcl2 and the level of the pro-apoptotic Bax (Table 3).

HepG2 cells [2] = assay: Cell cycle analysis by DNA flow cytometry (PI); assay type: cell-based, human; details: HepG2, 24 h, at IC50 concentration
Protocol: Subsequently, the treated cells were collected by centrifugation, fixed in ice-cold 70% (v/v) ethanol, washed with PBS, re-suspended with 0.1 mg/mL RNase, stained with […] PI, and analyzed by flow cytometry using FACS Calibur (Becton Dickinson, BD). The cell cycle distributions were calculated using CellQuest software (Becton Dickinson)[53].
The impact of compound 13a on cell cycle progression was examined in HepG2 cancer cell line after 24 h of treatment (Figure 2). This impact was illustrated by DNA flow cytometric analysis where HepG2 cells were treated with 13a at concentration equals to its IC50. […] Alteration of the Pre-G1 phase and arrest of G2-M phase were significant remarks for compound 13a to induce apoptosis in HepG2 cells.

HepG2 cells [3] = assay: Annexin V-FITC/PI apoptosis assay; assay type: cell-based, human; details: HepG2, 24 h
Protocol: Phosphatidylserine externalization was measured using Annexin V-FITC/PI apoptosis detection kit (BD Biosciences, San Jose, CA) according to the manufacturer's instructions, as reported earlier. HepG2 cells were treated with 13a at defined concentrations for 24 h.
The apoptotic effect of coumarin 13a was further assured by Annexin V-FITC/PI (AV/PI) dual staining assay to investigate the occurrence of phosphatidylserine externalization (Figure 3).

caspase-3 = assay: ELISA immunoassay, active caspase-3 level in HepG2 cells; assay type: cell-based, human; details: HepG2 cells treated at IC50 concentration
From the text: as §3
As a key executioner protease, caspase-3 is activated by upstream initiator caspases as caspase-9.

Bax = assay: ELISA immunoassay, Bax expression level in HepG2 cells; assay type: cell-based, human; details: HepG2 cells treated at IC50 concentration
From the text: as §3, §4

[4] = system: HepG2 hepatocellular carcinoma; assay: In vitro anti-proliferative activity, SRB assay, HepG2; assay type: cell-based, human; details: for fold increased potency than doxorubicin: HepG2 IC50 ratio
Protocol: as §1, §2

## CC(=NNc1nc(-c2ccccc2)cs1)c1ccc(NS(=O)(=O)c2ccc3oc(=O)ccc3c2)cc1 [Compound 13a, 2-Oxo-N-(4–(1-(2–(4-phenylthiazol-2-yl)hydrazono)ethyl)phenyl)-2H-chromene-6-sulfonamide]
Caco-2 colon cancer; Homo sapiens, Caco-2, 72 h incubation, SRB, mean ± SE of three experiments, read-out: IC50 Caco-2
  IC50: 83.4 ± 7.04 µM
Caco-2 colon cancer; Homo sapiens, Caco-2, training set, Table 4, -log IC50 (IC50 in µM), read-out: Caco-2 Experimental activity (pIC50) (converted)
  IC50: 83.4 µM
[1]; Homo sapiens, WI-38
  IC50: 73.2 ± 3.47 µM
[1]
  Selectivity index: 21
MCF-7 breast cancer; Homo sapiens, MCF7, 72 h incubation
  IC50: 83.2 ± 6.85 µM
Bcl-2
  Bcl-2, folds of control: 0.21 folds
  Bcl-2 expression level: 1.51 ng/mg protein
  Bcl-2 level, % of control: 21.4%
HepG2 cells [2]
  arrest in G2-M phase compared to control: 5.4 folds
  increase in percentage of cells at Pre-G1 compared to control: 6.4 folds
HepG2 cells [3]
  annexin V-FITC positive apoptotic cells, folds compared to control: about 7.9 folds
HepG2 cells [3]; control 1.75%
  annexin V-FITC positive apoptotic cells (UR + LR): 13.76%
caspase-3
  Caspase-3 (active caspase-3 level): 0.3021 ng/mg protein
Bax
  Bax expression level: 453.3 Pg/mg protein
  Bax, folds of control: 16.5 folds
[4]
  fold increased potency than doxorubicin: 1.5 fold
[4]; Homo sapiens, HepG2, 72 h, 72 h incubation, SRB, mean ± SE of three experiments, read-out: IC50 HepG2
  IC50: 3.48 ± 0.28 µM
[4]; Homo sapiens, HepG2, training set, Table 4, -log IC50 (IC50 in µM), read-out: HepG2 Experimental activity (pIC50) (converted)
  IC50: 3.48 µM

## 2-Oxo-N-(4–(1-(2–(5-oxo-4,5-dihydrothiazol-2-yl)hydrazono)ethyl)phenyl)-2H-chromene-6-sulfonamide [Compound 15a]
Caco-2 colon cancer; 72 h incubation, SRB, mean ± SE of three experiments, read-out: IC50 Caco-2
  IC50: 158 ± 9.39 µM
Caco-2 colon cancer; training set, Table 4, -log IC50 (IC50 in µM)
  Caco-2 Experimental activity (pIC50): −2.1997
[1]
  Selectivity index: 11
  IC50: 55.92 ± 0.39 µM
MCF-7 breast cancer; 72 h incubation, read-out: IC50 MCF7
  IC50: 11 ± 0.96 µM
Bcl-2
  Bcl-2, folds of control: 0.39 folds
  Bcl-2 expression level: 2.73 ng/mg protein
  Bcl-2 level, % of control: 38.6%
caspase-3
  Caspase-3 (active caspase-3 level): 0.2625 ng/mg protein
  Caspase-3, folds of control: ~5.7 folds
Bax
  Bax expression level: 394.3 Pg/mg protein
  Bax, folds of control: 14.3 folds
[4]; 72 h incubation, SRB, mean ± SE of three experiments, read-out: IC50 HepG2
  IC50: 5.03 ± 0.39 µM
[4]
  fold increased potency than doxorubicin: 1.1 fold
[4]; external validation test compounds, Table 5, -log IC50 (IC50 in µM)
  HepG2 Experimental activity (pIC50): –0.7016
